Assay results taken from patent US8598314B2 (priority 2007, dated 2013).

How the values were obtained:
[1] = biological target: T1, human GIP receptor (HEK-GIPR) (Homo sapiens, UniProt P48546); experiment: GIP receptor binding (RBA) displacement assay; settings: for inhibition at 0.01 µM: read-out: GIP RBA % inhibition at 10 nM
T1 construct: expressed in transfected cells
T1 sequence (P48546 22-466): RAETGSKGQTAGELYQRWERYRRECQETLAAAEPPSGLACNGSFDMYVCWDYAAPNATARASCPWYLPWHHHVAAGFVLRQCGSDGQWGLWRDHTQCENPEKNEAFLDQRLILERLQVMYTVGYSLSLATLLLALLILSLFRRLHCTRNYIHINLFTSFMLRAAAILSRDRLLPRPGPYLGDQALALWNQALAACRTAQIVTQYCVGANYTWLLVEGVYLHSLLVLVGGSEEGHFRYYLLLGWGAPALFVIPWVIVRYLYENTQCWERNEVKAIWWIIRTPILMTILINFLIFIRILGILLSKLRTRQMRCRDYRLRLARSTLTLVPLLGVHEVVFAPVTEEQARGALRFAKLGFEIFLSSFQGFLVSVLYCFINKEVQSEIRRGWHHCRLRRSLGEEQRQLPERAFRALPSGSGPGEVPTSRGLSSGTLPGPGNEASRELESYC
Description: Membrane fractions were prepared from confluent cell cultures of HEK-GIPR, snap frozen, and stored at −80° C. until use. […] Reactions were allowed to proceed to equilibrium for 90 minutes at room temperature with constant shaking. The reaction mixtures were then filtered through 96-well glass fiber filter plates separating bound and unbound fractions of radioligand.

[2] = tested on: NIH/Swiss mice; experiment: Oral glucose tolerance test (OGTT), glucose lowering; type: in vivo; settings: 30 nM/kg, blood glucose
Description: . Test compounds were injected IP (t=0 min) immediately following baseline measurements of 2 hour fasted NIH/Swiss mice. Blood samples were taken at 60, 120, and 180 minutes after injection. In some assays, samples were also taken at 240 minutes after the injection. Blood glucose was measured with a One-Touch® Ultra® glucose meter (LifeScan, Inc., Milpitas, Calif.). […].
The tests were performed as described in Example 5.

GIP RBA % inhibition at 10 nM ([1]; 10 nM conjugate, 30 pM 125I-GIP, relative to human GIP (100%)) [%]	Compound	inhibition at 0.01 µM [1] [%]	OGTT (30 nM/kg) % maximal decrease [2] [%]
	CC[C@H](C)[C@H](NC(=O)[C@H](CO)NC(=O)[C@H](Cc1ccc(O)cc1)NC(=O)[C@H](CC(=O)O)NC(=O)[C@H](CO)NC(=O)[C@@H](NC(=O)[C@H](Cc1ccccc1)NC(=O)[C@@H](NC(=O)CNC(=O)[C@H](CCC(=O)O)NC(=O)[C@H](C)NC(=O)[C@H](Cc1ccc(O)cc1)NC(=O)COCCOCCNC(=O)COCCOCCNC(=O)CC[C@H](N)C(=O)N1CCC[C@H]1C#N)[C@@H](C)O)[C@@H](C)CC)C(=O)N[C@@H](C)C(=O)N[C@@H](CCSC)C(=O)N[C@@H](CC(=O)O)C(=O)N[C@@H](CCCCN)C(=O)N[C@H](C(=O)N[C@@H](Cc1c[nH]cn1)C(=O)N[C@@H](CCC(N)=O)C(=O)N[C@@H](CCC(N)=O)C(=O)N[C@@H](CC(=O)O)C(=O)N[C@@H](Cc1ccccc1)C(=O)N[C@H](C(=O)N[C@@H](CC(N)=O)C(=O)N[C@@H](Cc1c[nH]c2ccccc12)C(=O)N[C@@H](CC(C)C)C(=O)N[C@@H](CC(C)C)C(=O)N[C@@H](C)C(=O)N[C@@H](CCC(N)=O)C(=O)NC(CCCCN)C(N)=O)C(C)C)[C@@H](C)CC (stereo partly drawn) [N-(γ-L-Glu-2-(S)-cyanopyrrolidyl)-Ado-Ado) GIP(1-30)]	32	
	CC[C@H](C)[C@H](NC(=O)[C@H](CO)NC(=O)[C@H](Cc1ccc(O)cc1)NC(=O)[C@H](CC(=O)O)NC(=O)[C@H](CO)NC(=O)[C@@H](NC(=O)[C@H](Cc1ccccc1)NC(=O)[C@@H](NC(=O)CNC(=O)[C@H](CCC(=O)O)NC(=O)[C@@H](C)NC(=O)[C@@H](N)Cc1ccc(O)cc1)[C@@H](C)O)[C@@H](C)CC)C(=O)N[C@@H](C)C(=O)N[C@@H](CC(C)C)C(=O)N[C@@H](CC(=O)O)C(=O)N[C@@H](CCCCN)C(=O)N[C@H](C(=O)N[C@@H](Cc1c[nH]cn1)C(=O)N[C@@H](CCC(N)=O)C(=O)N[C@@H](CCC(N)=O)C(=O)N[C@@H](CC(=O)O)C(=O)N[C@@H](Cc1ccccc1)C(=O)N[C@H](C(=O)N[C@@H](CC(N)=O)C(=O)N[C@@H](Cc1c[nH]c2ccccc12)C(=O)N[C@@H](CC(C)C)C(=O)N[C@@H](CC(C)C)C(=O)N[C@@H](C)C(=O)N[C@@H](CCC(N)=O)C(=O)N[C@@H](CCCCN)C(=O)NCCC(=O)NCCC(=O)NCCCC[C@H](NC(=O)[C@@H]1CCC(=O)N1)C(=O)N[C@@H](Cc1c[nH]c2ccccc12)C(=O)N[C@@H](C)C(=O)N1CCC[C@H]1C(=O)O)C(C)C)[C@@H](C)CC [[^2D-Ala,^14Leu] GIP-(1-30)-β-Ala-β-Ala-Lys(α-NH-Pyroglutamoyl)-Trp-Ala-Pro-COOH]	66	
	CC[C@H](C)[C@H](NC(=O)[C@H](CO)NC(=O)[C@H](Cc1ccc(O)cc1)NC(=O)[C@H](CC(=O)O)NC(=O)[C@H](CO)NC(=O)[C@@H](NC(=O)[C@H](Cc1ccccc1)NC(=O)[C@@H](NC(=O)CNC(=O)[C@H](CCC(=O)O)NC(=O)[C@@H](C)NC(=O)[C@@H](N)Cc1ccc(O)cc1)[C@@H](C)O)[C@@H](C)CC)C(=O)N[C@@H](C)C(=O)N[C@@H](CCSC)C(=O)N[C@@H](CC(=O)O)C(=O)N[C@@H](CCCCN)C(=O)N[C@H](C(=O)N[C@@H](Cc1c[nH]cn1)C(=O)N[C@@H](CCC(N)=O)C(=O)N[C@@H](CCC(N)=O)C(=O)N[C@@H](CC(=O)O)C(=O)N[C@@H](Cc1ccccc1)C(=O)N[C@H](C(=O)N[C@@H](CC(N)=O)C(=O)N[C@@H](Cc1c[nH]c2ccccc12)C(=O)N[C@@H](CC(C)C)C(=O)N[C@@H](CC(C)C)C(=O)N[C@@H](C)C(=O)N[C@@H](CCC(N)=O)C(=O)N[C@@H](CCCCN)C(=O)NCCOCCOCC(=O)NCCOCCOCC(=O)NCCCCCCCCCCC(=O)NCCC(=O)NCCC(=O)NCCCC[C@H](NC(=O)[C@@H]1CCC(=O)N1)C(=O)N[C@@H](Cc1c[nH]c2ccccc12)C(=O)N[C@@H](C)C(=O)N1CCC[C@H]1C(=O)O)C(C)C)[C@@H](C)CC [[^2D-Ala]GIP-(1-30)-Ado-Ado-Aun-βAla-βAla-ε-NH-Lys(α-NH-Pyroglutamoyl)-Trp-Ala-Pro]	70	
	CC[C@H](C)[C@H](NC(=O)[C@H](CO)NC(=O)[C@H](Cc1ccc(O)cc1)NC(=O)[C@H](CC(=O)O)NC(=O)[C@H](CO)NC(=O)[C@@H](NC(=O)[C@H](Cc1ccccc1)NC(=O)[C@@H](NC(=O)CNC(=O)[C@H](CCC(=O)O)NC(=O)[C@@H](C)NC(=O)[C@@H](N)Cc1ccc(O)cc1)[C@@H](C)O)[C@@H](C)CC)C(=O)N[C@@H](C)C(=O)N[C@@H](CC(C)C)C(=O)N[C@@H](CC(=O)O)C(=O)N[C@@H](CCCCN)C(=O)N[C@H](C(=O)N[C@@H](Cc1c[nH]cn1)C(=O)N[C@@H](CCC(N)=O)C(=O)N[C@@H](CCC(N)=O)C(=O)N[C@@H](CC(=O)O)C(=O)N[C@@H](Cc1ccccc1)C(=O)N[C@H](C(=O)N[C@@H](CC(N)=O)C(=O)N[C@@H](Cc1c[nH]c2ccccc12)C(=O)N[C@@H](CC(C)C)C(=O)N[C@@H](CC(C)C)C(=O)N[C@@H](C)C(=O)N[C@@H](CCC(N)=O)C(=O)N[C@@H](CCCCN)C(=O)N1CCC[C@H]1C(=O)N[C@@H](CO)C(=O)N[C@@H](CO)C(=O)NCC(=O)N[C@@H](C)C(=O)N1CCC[C@H]1C(=O)N1CCC[C@H]1C(=O)N1CCC[C@H]1C(=O)N[C@@H](CO)C(=O)NCCOCCOCC(=O)NCCOCCOCC(=O)NCCCCCCCCCCC(=O)NCCC(=O)NCCC(=O)NCCCC[C@H](NC(=O)[C@@H]1CCC(=O)N1)C(=O)N[C@@H](Cc1c[nH]c2ccccc12)C(=O)N[C@@H](C)C(=O)N1CCC[C@H]1C(=O)O)C(C)C)[C@@H](C)CC [[^2D-Ala^14Leu] GIP(1-30)-exendin-4(31-39)-Ado-Ado-Aun-βAla-βAla-ε-NH-Lys(α-NH-Pyroglutamoyl)-Trp-Ala-Pro]	86	
99	[^14Leu] GIP(1-30)-exendin-4(31-39)-Ado-Lys-N-ε-(2-(S)-cyano pyrrolidyl)		−24
